Values joined by “and” are separate entries in the source; they are usually repeats but may differ in a detail not shown here. Identical values can stand only once. Toxic doses and inconclusive results are not listed. The calls were made as follows: active = survival T/C of 150% or more; inactive = T/C below 125% in these data.
Test system: P388 leukemia ip, CD2F1 mice, survival T/C
Test: NCI In Vivo Anticancer Drug Screen. Data for tumor model P388 Leukemia (intraperitoneal) in CD2F1 (CDF1) mice
Details: endpoint: median survival time, higher = longer survival
In short: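 Mice carrying the transplanted tumor received test compound or vehicle. Survival was recorded in each group, and the value is the treated-group measurement divided by that of the vehicle-treated control group.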

[1] = dose: 50.0 mg/kg/injection, schedule: Q01DX005 (ip), vehicle: saline with Tween-80
[2] = dose: 60.0 mg/kg/injection, schedule: Q01DX005 (ip), vehicle: saline with Tween-80
[3] = dose: 100.0 mg/kg/injection, schedule: Q01DX005 (ip), vehicle: saline with Tween-80
[4] = dose: 120.0 mg/kg/injection, schedule: Q01DX005 (ip), vehicle: saline with Tween-80
[5] = dose: 200.0 mg/kg/injection, schedule: Q01DX005 (ip), vehicle: saline with Tween-80
[6] = dose: 240.0 mg/kg/injection, schedule: Q01DX005 (ip), vehicle: saline with Tween-80
[7] = dose: 25.0 mg/kg/injection, schedule: Q01DX005 (ip), vehicle: Klucel (hydroxypropylcellulose) (HPC)
[8] = dose: 50.0 mg/kg/injection, schedule: Q01DX005 (ip), vehicle: Klucel (hydroxypropylcellulose) (HPC)
[9] = dose: 200.0 mg/kg/injection, schedule: Q01DX005 (ip), vehicle: Klucel (hydroxypropylcellulose) (HPC)
[10] = dose: 100.0 mg/kg/injection, schedule: Q01DX005 (ip), vehicle: Klucel (hydroxypropylcellulose) (HPC)
[11] = dose: 12.5 mg/kg/injection, schedule: Q01DX009 (ip), vehicle: saline with Tween-80
[12] = dose: 25.0 mg/kg/injection, schedule: Q01DX009 (ip), vehicle: saline with Tween-80
[13] = dose: 50.0 mg/kg/injection, schedule: Q01DX009 (ip), vehicle: saline with Tween-80
[14] = dose: 100.0 mg/kg/injection, schedule: Q01DX009 (ip), vehicle: saline with Tween-80

Measured: T/C

CN1C(c2ccccc2)=C(C#N)C(=O)CC(c2ccccc2)N1C (stereo not given)
inactive: dose: 5.0 mg/kg/injection, schedule: Q01DX005 (ip), vehicle: saline with Tween-80 102 % of control | dose: 10.0 mg/kg/injection, schedule: Q01DX005 (ip), vehicle: saline with Tween-80 105 % of control | dose: 20.0 mg/kg/injection, schedule: Q01DX005 (ip), vehicle: saline with Tween-80 102 % of control | dose: 40.0 mg/kg/injection, schedule: Q01DX005 (ip), vehicle: saline with Tween-80 102 % of control | [1] 101 % of control | [2] 120 % of control | [3] 93 % of control | [4] 103 % of control | [5] 104 % of control | [6] 94 % of control

C[n+]1c(-c2ccc(/C=N\Nc3nnc(S)n3/N=C/c3ccc(-c4cn5ccccc5[n+]4C)cc3)cc2)cn2ccccc21
inactive: dose: 0.23 mg/kg/injection, schedule: Q01DX005 (ip), vehicle: saline with Tween-80 101 % of control | dose: 0.47 mg/kg/injection, schedule: Q01DX005 (ip), vehicle: saline with Tween-80 92 % of control | dose: 0.94 mg/kg/injection, schedule: Q01DX005 (ip), vehicle: saline with Tween-80 95 % of control | dose: 1.88 mg/kg/injection, schedule: Q01DX005 (ip), vehicle: saline with Tween-80 100 % of control

CN1C(C)(C)CC(C)(O)CC1(C)C
inactive: dose: 50.0 mg/kg/injection, schedule: Q01DX005 (ip), vehicle: saline 91 % of control | dose: 100.0 mg/kg/injection, schedule: Q01DX005 (ip), vehicle: saline 94 % of control | dose: 200.0 mg/kg/injection, schedule: Q01DX005 (ip), vehicle: saline 106 % of control

COc1cccc(/C=N\NC(=O)C(C)SC(C)C(=O)N/N=C/c2cccc(OC)c2)c1 (stereo not given)
inactive: dose: 100.0 mg/kg/injection, schedule: Q04DX003 (ip), vehicle: saline with Tween-80 104 % of control | dose: 200.0 mg/kg/injection, schedule: Q04DX003 (ip), vehicle: saline with Tween-80 90 % of control | dose: 400.0 mg/kg/injection, schedule: Q04DX003 (ip), vehicle: saline with Tween-80 100 % of control

CCCNC(=O)c1ccccc1C(=O)NC1(C(=O)NCCC)CCCC1
inactive: [1] 97 % of control | [3] 96 % of control | [5] 96 % of control

CCCn1c(CC)nc([N+](=O)[O-])c1Sc1ncn[nH]1
inactive: [7] 123 % of control | [8] 108 % of control | [9] 113 % of control

CCOc1ccc(/C=C/C(C)=N/NC(N)=Nc2ccc(Cl)cc2)cc1
inactive: dose: 12.5 mg/kg/injection, schedule: Q01DX005 (ip), vehicle: saline with Tween-80 96 % of control | dose: 25.0 mg/kg/injection, schedule: Q01DX005 (ip), vehicle: saline with Tween-80 97 % of control | [1] 107 % of control and 97 % of control

CC1=C(C)CN(c2ccnc3cc(Cl)ccc23)OC1
inactive: [1] 102 % of control | [3] 97 % of control | [5] 97 % of control

CCOC(=O)CCCCCN(/C=C(\C)CN1c2c(nc(N)[nH]c2=O)NCC1CNc1ccc(C(=O)NC(CCC(=O)O)C(=O)O)cc1)C(C)=O (stereo not given)
inactive: dose: 50.0 mg/kg/injection, schedule: Q01DX001 (ip), vehicle: sodium bicarbonate 99 % of control | dose: 100.0 mg/kg/injection, schedule: Q01DX001 (ip), vehicle: sodium bicarbonate 100 % of control | dose: 200.0 mg/kg/injection, schedule: Q01DX001 (ip), vehicle: sodium bicarbonate 100 % of control

COC(=O)c1c(C(=O)OC)c(-c2ccccc2)n(CCn2c(-c3ccccc3)c(C(=O)OC)c(C(=O)OC)c2-c2ccccc2)c1-c1ccccc1
inactive: [8] 96 % of control | [10] 93 % of control | [9] 95 % of control

CCOP(=O)(CSCCC1(C)NC(=O)NC1=O)OCC (stereo not given)
inactive: dose: 60.0 mg/kg/injection, schedule: Q01DX005 (ip), vehicle: saline 102 % of control | dose: 120.0 mg/kg/injection, schedule: Q01DX005 (ip), vehicle: saline 103 % of control | dose: 240.0 mg/kg/injection, schedule: Q01DX005 (ip), vehicle: saline 102 % of control

O=C(O)c1c(C(=O)O)c(C(=O)O)c(C(=O)O)c(C(=O)O)c1C(=O)O
inactive: dose: 25.0 mg/kg/injection, schedule: Q01DX009 (ip), vehicle: water 111 % of control | dose: 50.0 mg/kg/injection, schedule: Q01DX009 (ip), vehicle: water 106 % of control | dose: 100.0 mg/kg/injection, schedule: Q01DX009 (ip), vehicle: water 109 % of control | dose: 200.0 mg/kg/injection, schedule: Q01DX009 (ip), vehicle: water 101 % of control

C=Cc1ccccc1 (tested in a mixture with another compound)
inactive: dose: 12.5 mg/kg/injection, schedule: Q01DX005 (ip), vehicle: saline 98 % of control | dose: 25.0 mg/kg/injection, schedule: Q01DX005 (ip), vehicle: saline 99 % of control

CCOc1cccc(/C=N/NC(=O)C(=O)Nc2ccc(Cl)c([N+](=O)[O-])c2)c1O
inactive: [1] 100 % of control | [3] 89 % of control | [5] 90 % of control

N#CCCN1CCC(N)=NC1=NC#N
inactive: [7] 100 % of control | [8] 112 % of control | [10] 94 % of control | [9] 96 % of control

NCCCCC(N)C(=O)O (stereo not given)
inactive: dose: 50.0 mg/kg/injection, schedule: Q01DX009 (ip), vehicle: saline 104 % of control | dose: 100.0 mg/kg/injection, schedule: Q01DX009 (ip), vehicle: saline 100 % of control | dose: 200.0 mg/kg/injection, schedule: Q01DX009 (ip), vehicle: saline 94 % of control

COc1ccc2c(c1)OC(=O)C(S(=O)(=O)c1ccccc1)C2 (stereo not given)
inactive: [1] 102 % of control | [3] 96 % of control | [5] 101 % of control

CN(C)N=Nc1ccc(-c2ccccc2)cc1
inactive: [11] 100 % of control and 104 % of control | [12] 102 % of control and 115 % of control | [13] 101 % of control and 110 % of control | [14] 102 % of control and 117 % of control

CCOC1(NC(=O)N(C)C)CC1
inactive: dose: 50.0 mg/kg/injection, schedule: Q04DX003 (ip), vehicle: saline 103 % of control | dose: 100.0 mg/kg/injection, schedule: Q04DX003 (ip), vehicle: saline 102 % of control | dose: 200.0 mg/kg/injection, schedule: Q04DX003 (ip), vehicle: saline 102 % of control

CC(C)CC(N)C(=O)NC(CC(C)C)P(=O)(O)O (stereo not given)
inactive: [2] 106 % of control | [4] 101 % of control | [6] 104 % of control

CCOP(=O)(OCC)C(=C(Cl)Cl)C(Cl)Cl
inactive: [11] 100 % of control and 104 % of control | [12] 105 % of control and 115 % of control | [13] 113 % of control and 118 % of control and 124 % of control | [14] 116 % of control

CCOc1ccc(NC(=O)c2c(C)nc(-c3ccccc3)nc2Nc2ccc(Cl)cc2)cc1
inactive: [2] 90 % of control | [4] 90 % of control | [6] 94 % of control

COC(=O)c1ccc(SCCC2(COS(C)(=O)=O)OCCO2)cc1
inactive: dose: 50.0 mg/kg/injection, schedule: Q01DX009 (ip), vehicle: Klucel (hydroxypropylcellulose) (HPC) 106 % of control | dose: 100.0 mg/kg/injection, schedule: Q01DX009 (ip), vehicle: Klucel (hydroxypropylcellulose) (HPC) 102 % of control | dose: 200.0 mg/kg/injection, schedule: Q01DX009 (ip), vehicle: Klucel (hydroxypropylcellulose) (HPC) 96 % of control

CC(C)(C)N=C(Cc1ccccc1)N1CCCCC1
inactive: [13] 100 % of control | [14] 96 % of control

O=C(CCN1C(=O)c2ccccc2C1=O)Nc1c(I)cc(I)c(C(=O)O)c1I
inactive: [2] 104 % of control | [4] 106 % of control | [6] 101 % of control

CC(C)(O)C1CCCCC1Cl (stereo not given)
inactive: [1] 104 % of control | [3] 107 % of control | [5] 104 % of control

O=C(Nc1ccc(F)cc1)/C(Cl)=C1/Sc2ccccc2NC1=O
inactive: dose: 100.0 mg/kg/injection, schedule: Q01DX001 (ip), vehicle: saline with Tween-80 102 % of control | dose: 200.0 mg/kg/injection, schedule: Q01DX001 (ip), vehicle: saline with Tween-80 94 % of control | dose: 400.0 mg/kg/injection, schedule: Q01DX001 (ip), vehicle: saline with Tween-80 94 % of control

COc1ccc(/C=C/C(=O)C(C)(C)Br)cc1
inactive: [2] 101 % of control | [4] 101 % of control | [6] 103 % of control

O=C/C(=N/Nc1ccc([N+](=O)[O-])cc1)c1ccccc1
inactive: dose: 37.5 mg/kg/injection, schedule: Q01DX009 (ip), vehicle: saline with Tween-80 94 % of control | dose: 75.0 mg/kg/injection, schedule: Q01DX009 (ip), vehicle: saline with Tween-80 90 % of control | dose: 150.0 mg/kg/injection, schedule: Q01DX009 (ip), vehicle: saline with Tween-80 86 % of control

CC1=N[C@@H](C(=O)NCC(N)=O)Cc2c1[nH]c1ccccc21
inactive: [2] 98 % of control | [4] 93 % of control | [6] 93 % of control
